According to ChEMBL document CHEMBL1201862, “PubChem BioAssay data set” (2004):
Values belong to the molecule of their own block, whether it stands above or below them. Active and inactive are the calls of the source.

Columns and labels:
[1] = target: T1, Short transient receptor potential channel 4 (Mus musculus, UniProt Q9QUQ5); test: mouse TRPC4 channel activators, dose response, cell-based, HEK293 TRPC4/mu-opioid, Fluo-4 calcium (AID 434937); type: functional
T1 sequence (Q9QUQ5 whole entry): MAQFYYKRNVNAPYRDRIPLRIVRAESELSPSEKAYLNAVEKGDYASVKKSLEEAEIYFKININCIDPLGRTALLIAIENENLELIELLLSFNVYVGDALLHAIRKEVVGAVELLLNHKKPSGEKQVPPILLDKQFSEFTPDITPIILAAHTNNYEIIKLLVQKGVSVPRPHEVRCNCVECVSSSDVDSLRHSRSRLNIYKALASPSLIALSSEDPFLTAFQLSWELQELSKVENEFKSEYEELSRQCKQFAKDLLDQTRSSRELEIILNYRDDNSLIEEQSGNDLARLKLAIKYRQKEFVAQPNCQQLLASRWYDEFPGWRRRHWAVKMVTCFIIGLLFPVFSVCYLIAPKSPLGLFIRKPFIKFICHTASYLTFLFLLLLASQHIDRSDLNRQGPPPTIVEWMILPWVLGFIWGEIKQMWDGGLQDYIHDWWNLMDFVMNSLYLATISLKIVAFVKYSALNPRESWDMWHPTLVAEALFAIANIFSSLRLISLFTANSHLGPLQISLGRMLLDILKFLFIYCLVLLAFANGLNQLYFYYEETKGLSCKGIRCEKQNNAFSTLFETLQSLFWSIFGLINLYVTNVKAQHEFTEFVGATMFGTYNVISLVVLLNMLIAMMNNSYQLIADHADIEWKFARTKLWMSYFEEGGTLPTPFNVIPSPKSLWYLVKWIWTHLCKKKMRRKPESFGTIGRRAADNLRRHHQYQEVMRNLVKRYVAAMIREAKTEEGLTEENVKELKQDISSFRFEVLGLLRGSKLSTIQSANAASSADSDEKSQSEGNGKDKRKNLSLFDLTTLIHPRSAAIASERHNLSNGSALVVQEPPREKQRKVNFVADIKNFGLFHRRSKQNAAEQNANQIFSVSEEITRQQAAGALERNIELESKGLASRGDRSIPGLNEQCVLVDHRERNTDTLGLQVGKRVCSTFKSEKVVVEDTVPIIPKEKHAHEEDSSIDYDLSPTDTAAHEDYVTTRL

[2] = target: T2, Corticotropin-releasing factor receptor 2/Corticotropin-releasing factor-binding protein (Homo sapiens, UniProt P24387+Q13324); test: activators of CRF receptor 2 with binding protein – uHTS hits, confirmation (AID 602473); type: functional; settings: read-out: EC50_Mean
T2 sequence (Q13324 whole entry): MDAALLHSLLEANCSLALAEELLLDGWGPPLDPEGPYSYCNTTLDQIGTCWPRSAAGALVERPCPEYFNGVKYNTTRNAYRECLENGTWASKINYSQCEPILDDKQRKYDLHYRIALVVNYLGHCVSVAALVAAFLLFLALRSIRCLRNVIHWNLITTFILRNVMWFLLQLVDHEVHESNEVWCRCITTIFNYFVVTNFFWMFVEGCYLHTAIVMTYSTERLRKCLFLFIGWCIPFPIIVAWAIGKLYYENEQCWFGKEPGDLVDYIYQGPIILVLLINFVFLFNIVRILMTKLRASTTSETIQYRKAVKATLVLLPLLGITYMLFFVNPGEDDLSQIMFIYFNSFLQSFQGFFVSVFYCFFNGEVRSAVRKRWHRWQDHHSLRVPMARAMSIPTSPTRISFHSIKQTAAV
T2 sequence (P24387 whole entry): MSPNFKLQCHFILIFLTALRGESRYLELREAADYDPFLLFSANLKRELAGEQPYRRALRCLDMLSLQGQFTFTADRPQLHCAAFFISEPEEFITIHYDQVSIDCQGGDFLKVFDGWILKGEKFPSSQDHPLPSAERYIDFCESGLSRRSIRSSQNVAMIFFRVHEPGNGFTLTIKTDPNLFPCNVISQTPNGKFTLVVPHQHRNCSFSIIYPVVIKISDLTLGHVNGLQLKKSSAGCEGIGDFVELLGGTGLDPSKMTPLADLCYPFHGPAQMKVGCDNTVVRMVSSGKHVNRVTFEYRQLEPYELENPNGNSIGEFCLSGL

[3] = intracellular Trypanosoma cruzi inhibitors in host cells – cell-based, plate reader, cherry-pick samples, set 3, dose response (AID 651818); type: functional;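 further: compounds incubated with infected cells for about four days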
Cytochrome P450 2D6 = Cytochrome P450 2D6 (Homo sapiens, UniProt P10635);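 further: CYP2D6 member of a cytochrome P450 panel assay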
Cytochrome P450 2C9 = Cytochrome P450 2C9 (Homo sapiens, UniProt P11712)
[4] = inhibitors of HIV Env-driven cell fusion, dose response, cherry-pick (AID 652057); type: functional, cell-based
[5] = ZM109 Env clade C HIV-1 fusion inhibitors, dose response, HeLa effector, CEM target cells, luciferase, cherry-pick (AID 652058); type: functional, cell-based
[6] = off-target signal loss in HeLa-CEM21 co-culture – HeLa F-luc CTL cells, cherry-picked, counter-screen for HIV-1 Env fusion inhibitor project, dose response (AID 652040); type: functional, cell-based;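 further: potency for signal decrease marking cytotoxic or nonspecific inhibition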
[7] = inhibitors of clade B AD8 Env fusion, dose response, cell-based, cherry-pick (AID 652062); type: functional;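 further: luciferase signal from cell-cell fusion driven by HIV-1 clade B AD8 Env; potency is for inhibitors of fusion seen as a drop in luminescence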
[8] = target: T3, DNA repair protein RAD52 homolog (Homo sapiens, UniProt P43351); type: functional, biochemical
T3 sequence (P43351 whole entry): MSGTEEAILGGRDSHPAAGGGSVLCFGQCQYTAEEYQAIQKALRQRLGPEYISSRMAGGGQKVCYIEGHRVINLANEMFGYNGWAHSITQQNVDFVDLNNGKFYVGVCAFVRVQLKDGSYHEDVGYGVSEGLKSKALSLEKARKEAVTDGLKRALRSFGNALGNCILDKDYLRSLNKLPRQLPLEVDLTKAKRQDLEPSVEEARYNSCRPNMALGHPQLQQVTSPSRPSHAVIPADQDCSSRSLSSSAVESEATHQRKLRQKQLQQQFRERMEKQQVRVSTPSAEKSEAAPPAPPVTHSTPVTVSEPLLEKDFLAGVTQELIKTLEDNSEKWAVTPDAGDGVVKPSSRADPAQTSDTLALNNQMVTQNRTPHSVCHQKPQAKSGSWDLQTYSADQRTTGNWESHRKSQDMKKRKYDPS

cells = type: functional, cell-based
[9] = target: T4, Nuclear receptor subfamily 0 group B member 1 (Homo sapiens, UniProt P51843); type: functional, cell-based;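 further: HEK293T cells transfected with SF-1 and DAX-1 plus StAR promoter luciferase reporter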
T4 sequence (P51843 whole entry): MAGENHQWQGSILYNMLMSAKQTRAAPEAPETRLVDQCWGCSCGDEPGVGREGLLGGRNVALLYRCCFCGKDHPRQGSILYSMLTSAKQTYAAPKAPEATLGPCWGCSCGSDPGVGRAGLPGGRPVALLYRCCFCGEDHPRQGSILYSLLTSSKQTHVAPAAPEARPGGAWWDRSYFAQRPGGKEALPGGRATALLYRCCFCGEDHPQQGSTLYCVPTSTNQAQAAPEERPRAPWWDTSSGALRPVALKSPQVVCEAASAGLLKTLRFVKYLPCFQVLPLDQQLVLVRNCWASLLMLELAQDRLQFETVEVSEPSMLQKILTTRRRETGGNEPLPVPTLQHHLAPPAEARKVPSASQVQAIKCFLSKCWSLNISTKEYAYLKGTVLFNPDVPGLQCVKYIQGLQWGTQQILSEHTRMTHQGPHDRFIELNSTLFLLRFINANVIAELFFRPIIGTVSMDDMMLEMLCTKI

H9c2 = test: cells; type: functional, cell-based; settings: Rattus norvegicus, H9c2, Myocardium;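 further: confirmatory concentration-response retest of ultra-high-throughput screening hits for modulation of myocardial damage; cell death induced by hydrogen peroxide oxidative stress; compound pretreatment for 60 min then peroxide exposure for 2 h; potency is for protecting the cells against peroxide damage rather than for killing them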
HEK293 = test: inhibitors of LMP1-driven NF-kB reporter, dose response, cell-based, HEK293, luciferase, cherry-pick (AID 588343); type: functional; settings: Homo sapiens

Cytochrome P450 2C9, sequence (P11712 whole entry, the tested form may be a part): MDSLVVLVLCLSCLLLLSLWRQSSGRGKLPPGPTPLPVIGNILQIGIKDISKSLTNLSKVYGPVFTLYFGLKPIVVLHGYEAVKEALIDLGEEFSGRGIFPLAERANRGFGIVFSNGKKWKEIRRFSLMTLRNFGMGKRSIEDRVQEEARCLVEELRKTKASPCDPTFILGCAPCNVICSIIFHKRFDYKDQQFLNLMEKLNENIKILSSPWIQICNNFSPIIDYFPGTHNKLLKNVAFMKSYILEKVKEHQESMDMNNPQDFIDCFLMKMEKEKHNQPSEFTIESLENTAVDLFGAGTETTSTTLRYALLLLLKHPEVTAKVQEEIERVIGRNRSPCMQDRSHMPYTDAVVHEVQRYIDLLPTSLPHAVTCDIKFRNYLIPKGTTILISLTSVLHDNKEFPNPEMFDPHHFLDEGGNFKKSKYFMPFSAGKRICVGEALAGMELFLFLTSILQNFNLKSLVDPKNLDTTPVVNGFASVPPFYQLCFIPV
Cytochrome P450 2D6, sequence (P10635 whole entry): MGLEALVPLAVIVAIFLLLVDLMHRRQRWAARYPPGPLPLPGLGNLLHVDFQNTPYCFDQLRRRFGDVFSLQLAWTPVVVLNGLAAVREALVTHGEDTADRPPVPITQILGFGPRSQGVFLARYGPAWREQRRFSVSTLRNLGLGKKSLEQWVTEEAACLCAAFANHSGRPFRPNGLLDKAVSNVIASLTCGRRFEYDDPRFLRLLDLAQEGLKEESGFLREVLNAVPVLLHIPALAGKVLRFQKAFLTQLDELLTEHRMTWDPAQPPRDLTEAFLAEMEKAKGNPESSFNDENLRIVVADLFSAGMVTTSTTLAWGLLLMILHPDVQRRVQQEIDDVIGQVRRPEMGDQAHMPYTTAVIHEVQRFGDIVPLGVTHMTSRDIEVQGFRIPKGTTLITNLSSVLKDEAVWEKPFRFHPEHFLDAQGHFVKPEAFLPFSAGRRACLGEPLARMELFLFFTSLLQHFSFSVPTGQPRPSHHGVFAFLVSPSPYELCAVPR

EC50 [1]: 2.66 µM (active) | EC50 [2]: 2.77 µM (active)
SMILES: CCOc1ccccc1N(CC(=O)N1CCOCC1)S(=O)(=O)c1ccc(SC)cc1

SMILES: C[C@H](CO)N1C[C@H](C)[C@@H](CN(C)Cc2ccc(Oc3ccccc3)cc2)Oc2c(NC(=O)c3ccc(-c4nccs4)cc3)cccc2C1=O
AC50 [3]: 3.08 µM (active)

AC50 (Cytochrome P450 2D6): 25.1 µM (inconclusive) | AC50 (Cytochrome P450 2C9): inconclusive
SMILES: COc1ccc(C(=O)CN2CCN(c3ccc(F)cc3)CC2)cc1OC

SMILES: C[C@@H]1CCCCO[C@H](CN(C)C(=O)Nc2ccc(F)cc2)[C@@H](C)CN([C@H](C)CO)C(=O)c2cc(NC(=O)Nc3ccc(F)cc3)ccc2O1
AC50 [3]: 5.89 µM (active)

SMILES: CCOC(=O)c1c(CSc2cccs2)n(C)c2cc(Br)c(O)c(CN(C)C)c12
AC50 [4]: 1.62 µM (active) | AC50 [5]: 1.23 µM (active) | AC50 [6]: 2.08 µM (active) | AC50 [7]: 14.4 µM (active)

AC50 [8]: 19.8 µM (active)
SMILES: CN(C)CCCNc1nc2cc(-c3cnn(Cc4ccccc4)c3)sc2c(=O)n1C

SMILES: C[C@@H]1CN([C@H](C)CO)C(=O)c2cccc(NC(=O)NC3CCCCC3)c2O[C@H]1CN(C)CC1CCCCC1
AC50 [3]: 2.5 µM (active)

SMILES: C[C@@H]1CN([C@H](C)CO)C(=O)c2cccc(NS(=O)(=O)c3ccccc3)c2O[C@@H]1CN(C)Cc1ccc(C(=O)Nc2ccccc2N)cc1
AC50 [3]: 3.53 µM (active)

SMILES: CCOc1cccc(/C=C/c2ccc3ccccc3n2)c1OC(C)=O
IC50 (cells): > 67.5 µM (inactive) | IC50 [9]: > 67.5 µM (inactive)

SMILES: CCN(C[C@H]1N[C@@](C)(C(=O)OC)[C@H]2C(=O)N(Cc3ccccc3)C(=O)[C@@H]12)C(=O)c1ccc(C(C)(C)C)cc1
IC50 (H9c2): > 79 µM (inactive) | AC50 [4]: 5.34 µM (active) | AC50 [5]: 4.92 µM (active) | AC50 [6]: 10.2 µM (active) | AC50 [7]: 16.8 µM (active)

SMILES: C(=N\Nc1ccc2ccccc2n1)/c1ccc2c(c1)OCO2
AC50 (HEK293): 2.42 µM (active) | IC50 (cells): > 67.6 µM (inactive) | IC50 [9]: > 0.278 µM (active)
